Test results as given in PubChem BioAssay AID1963982 (Molecular Pharmacology Branch, DTP, NCI, 2024).

Test system: 313798-341-R-J2-PDC spheroids, viability
Experiment: Anticancer human tumor 313798-341-R-J2-PDC patient-derived cervical squamous cell carcinoma cell line growth inhibition [PI3K]
Conditions: spheroids with HUVEC and MSC; for IC50: curve of first compound; for viability, T/C: stronger effect = lower value
Procedure, shortened: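 Tumor cells were combined with HUVEC and MSCs into spheroids, then dosed with PI3K-inhibitor combinations over half-log ranges capped near clinical Cmax or 10 microM.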
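Further: spheroids exposed to compounds for seven days.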
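Wherever viability, T/C is given: 100% = DMSO vehicle control viability.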

For Cn1cnc2c(F)c(Nc3ccc(Br)cc3Cl)c(C(=O)NOCCO)cc21 + CC(Nc1ccc2c(c1)OCCn1cc(N3C(=O)OCC3C(F)F)nc1-2)C(N)=O, the IC50 (second compound 0.00316 µM) was 1200 nM, the IC50 (second compound 0.01 µM) was 841 nM and the IC50 (second compound 0.0316 µM) was 547 nM. For the same compound, the IC50 (second compound 0.1 µM) was 265 nM, the IC50 (second compound 0.316 µM) was 26.1 nM and the IC50 (second compound 1 µM) was less than 9.49 nM. The viability, T/C (second compound 0.00316 µM, first compound 0.00949 µM) was 87.2%, the viability, T/C (second compound 0.00316 µM, first compound 0.03 µM) was 107% and the viability, T/C (second compound 0.00316 µM, first compound 0.0949 µM) was 97.8%. The viability, T/C (second compound 0.00316 µM, first compound 0.3 µM) was 81.5%, the viability, T/C (second compound 0.00316 µM, first compound 0.949 µM) was 57.9% and the viability, T/C (second compound 0.00316 µM, first compound 3 µM) was 23.4%. The viability, T/C (second compound 0.01 µM, first compound 0.00949 µM) was 95.6%, the viability, T/C (second compound 0.01 µM, first compound 0.03 µM) was 103% and the viability, T/C (second compound 0.01 µM, first compound 0.0949 µM) was 96.1%. For the same compound, the viability, T/C (second compound 0.01 µM, first compound 0.3 µM) was 84.2%, the viability, T/C (second compound 0.01 µM, first compound 0.949 µM) was 46% and the viability, T/C (second compound 0.01 µM, first compound 3 µM) was 20.8%. It also gave a viability, T/C (second compound 0.0316 µM, first compound 0.00949 µM) of 97.6%, a viability, T/C (second compound 0.0316 µM, first compound 0.03 µM) of 92.8% and a viability, T/C (second compound 0.0316 µM, first compound 0.0949 µM) of 92.9%. The viability, T/C (second compound 0.0316 µM, first compound 0.3 µM) was 60.8%, the viability, T/C (second compound 0.0316 µM, first compound 0.949 µM) was 38.4% and the viability, T/C (second compound 0.0316 µM, first compound 3 µM) was 11.8%. The viability, T/C (second compound 0.1 µM, first compound 0.00949 µM) was 79.4%, the viability, T/C (second compound 0.1 µM, first compound 0.03 µM) was 69.9% and the viability, T/C (second compound 0.1 µM, first compound 0.0949 µM) was 66.2%. It also gave a viability, T/C (second compound 0.1 µM, first compound 0.3 µM) of 46%, a viability, T/C (second compound 0.1 µM, first compound 0.949 µM) of 29.9% and a viability, T/C (second compound 0.1 µM, first compound 3 µM) of 4.42%. For the same compound, the viability, T/C (second compound 0.316 µM, first compound 0.00949 µM) was 57.9%, the viability, T/C (second compound 0.316 µM, first compound 0.03 µM) was 46.5% and the viability, T/C (second compound 0.316 µM, first compound 0.0949 µM) was 41.3%. The viability, T/C (second compound 0.316 µM, first compound 0.3 µM) was 28.8%, the viability, T/C (second compound 0.316 µM, first compound 0.949 µM) was 16.7% and the viability, T/C (second compound 0.316 µM, first compound 3 µM) was 2.27%. The viability, T/C (second compound 1 µM, first compound 0.00949 µM) was 35.4%, the viability, T/C (second compound 1 µM, first compound 0.03 µM) was 34.2% and the viability, T/C (second compound 1 µM, first compound 0.0949 µM) was 30.1%. For the same compound, the viability, T/C (second compound 1 µM, first compound 0.3 µM) was 19.6%, the viability, T/C (second compound 1 µM, first compound 0.949 µM) was 9.79% and the viability, T/C (second compound 1 µM, first compound 3 µM) was 1.11%.

In the case of CCN1CCN(Cc2ccc(Nc3ncc(F)c(-c4cc(F)c5nc(C)n(C(C)C)c5c4)n3)nc2)CC1 + COc1c(OCCCN2CCOCC2)ccc2c3n(c(=NC(=O)c4cnc(N)nc4)nc12)CCN3, the IC50 (second compound 0.00316 µM) is reported as greater than 1000 nM, the IC50 (second compound 0.01 µM) is reported as greater than 1000 nM and the IC50 (second compound 0.0316 µM) is reported as greater than 1000 nM. The IC50 (second compound 0.1 µM) was less than 3.16 nM, the IC50 (second compound 0.316 µM) was less than 3.16 nM and the IC50 (second compound 1 µM) was less than 3.16 nM. For the same compound, the viability, T/C (second compound 0.00316 µM, first compound 0.00316 µM) was 99.7%, the viability, T/C (second compound 0.00316 µM, first compound 0.01 µM) was 102% and the viability, T/C (second compound 0.00316 µM, first compound 0.0316 µM) was 117%. The viability, T/C (second compound 0.00316 µM, first compound 0.1 µM) was 111%, the viability, T/C (second compound 0.00316 µM, first compound 0.316 µM) was 119% and the viability, T/C (second compound 0.00316 µM, first compound 1 µM) was 105%. For the same compound, the viability, T/C (second compound 0.01 µM, first compound 0.00316 µM) was 98.6%, the viability, T/C (second compound 0.01 µM, first compound 0.01 µM) was 91% and the viability, T/C (second compound 0.01 µM, first compound 0.0316 µM) was 99%. It also gave a viability, T/C (second compound 0.01 µM, first compound 0.1 µM) of 125%, a viability, T/C (second compound 0.01 µM, first compound 0.316 µM) of 113% and a viability, T/C (second compound 0.01 µM, first compound 1 µM) of 102%. The viability, T/C (second compound 0.0316 µM, first compound 0.00316 µM) was 83.7%, the viability, T/C (second compound 0.0316 µM, first compound 0.01 µM) was 86.6% and the viability, T/C (second compound 0.0316 µM, first compound 0.0316 µM) was 77.3%. The viability, T/C (second compound 0.0316 µM, first compound 0.1 µM) was 80.7%, the viability, T/C (second compound 0.0316 µM, first compound 0.316 µM) was 90% and the viability, T/C (second compound 0.0316 µM, first compound 1 µM) was 80%. For the same compound, the viability, T/C (second compound 0.1 µM, first compound 0.00316 µM) was 43.1%, the viability, T/C (second compound 0.1 µM, first compound 0.01 µM) was 44% and the viability, T/C (second compound 0.1 µM, first compound 0.0316 µM) was 43.4%. The viability, T/C (second compound 0.1 µM, first compound 0.1 µM) was 36.6%, the viability, T/C (second compound 0.1 µM, first compound 0.316 µM) was 41.9% and the viability, T/C (second compound 0.1 µM, first compound 1 µM) was 45.9%. The viability, T/C (second compound 0.316 µM, first compound 0.00316 µM) was 13.6%, the viability, T/C (second compound 0.316 µM, first compound 0.01 µM) was 15.5% and the viability, T/C (second compound 0.316 µM, first compound 0.0316 µM) was 14.5%. The viability, T/C (second compound 0.316 µM, first compound 0.1 µM) was 16.4%, the viability, T/C (second compound 0.316 µM, first compound 0.316 µM) was 19.8% and the viability, T/C (second compound 0.316 µM, first compound 1 µM) was 30%. For the same compound, the viability, T/C (second compound 1 µM, first compound 0.00316 µM) was 11.4%, the viability, T/C (second compound 1 µM, first compound 0.01 µM) was 14.3% and the viability, T/C (second compound 1 µM, first compound 0.0316 µM) was 13.9%. It also gave a viability, T/C (second compound 1 µM, first compound 0.1 µM) of 11.7%, a viability, T/C (second compound 1 µM, first compound 0.316 µM) of 18.3% and a viability, T/C (second compound 1 µM, first compound 1 µM) of 27.4%.
